Measurements reported in paper PMC10387993, “New pyrimidine-N-β-D-glucosides: synthesis, biological evaluation, and molecular docking investigations” (Turkish Journal of Chemistry, 2023).
Converted amounts (≈) assume the structure as drawn. Read-outs that look alike come from different tables or passages of the source.

What was measured:
Type in all cases: cell-based
A549 = experiment: cells; conditions: Homo sapiens; for LC50 (concentration causing 50% net cell loss): A549, read-out: LC50; for GI50 / IC50 / IC (total growth inhibition): A549, MTT; for IC50: read-out: IC50; for IC (total growth inhibition): read-out: TGI
Description: (§1) The cell lines were cultured in a cell medium (Dulbecco’s modified eagle’s or RPMI 1640) enriched with 10% (v/v) fetal bovine serum and 2% (v/v) Penicillin-Streptomycin (10,000 U/mL). First, old medium was removed out of the flask when the cells reached approximately 80% confluence. Next, cells were taken from the flasks surface using trypsin-EDTA solution and then subjected to centrifugation. Following, the cell pellet was suspended with fresh media and was inoculated into wells.
(§2) A cell suspension containing approximately 1 × 10^4 cells in 100 μL was seeded into the wells of 96-well culture plates. […]. The final volume of the wells was set to 200 μL by medium. Cell proliferation assay was evaluated by MTT (yellow tetrazolium MTT (3-(4,5-dimethylthiazolyl-2)-2,5-diphenyltetrazolium bromide) methods. Briefly, an MTT stock solution (5 mg of MTT/mL of distilled water) was filtered and kept at −20 °C until use. The cells were exposed to an MTT reagent (consisting of one parts of MTT stock solutions and nine parts of fresh RPMI 1640 without phenol red) for 4 h to form MTT formazan dye followed by the dye dissolved in DMSO with Sorenson’s buffer for 30 min at room temperature and then the plate was measured at 560 nm, with 690 nm as a reference interval, using a microplate reader. Each experiment was repeated at least three times for each cell line.
(§3) IC50 value is a concentration that inhibits half of the cells in vitro. The half maximal inhibitory concentration (IC50) of the test and control compounds was calculated using XLfit5 or excel spreadsheet and represent in μM at 95% confidence intervals. The proliferation assay results were expressed as the percent inhibition according to the following formula: % Inhibition = [1 - (Absorbance of Treatments /Absorbance of DMSO) × 100]. Three dose response parameters (GI50, TGI, LC50) were calculated according to the following formulas using the absorbance measurements of time zero (Tz), control growth (C), and test growth in the presence of drug (Ti). Growth inhibition of 50% (GI50) was calculated from [(Ti-Tz)/(C-Tz)] × 100 = 50, which is the drug concentration resulting in a 50% reduction in the net growth increase in control cells during the drug incubation. The drug concentration resulting in total growth inhibition (TGI) was calculated from Ti = Tz. The LC50 indicating a net loss of cells following treatment was calculated from [(Ti-Tz)/Tz] × 100 = −50.

C6 (Rat brain glioma) = experiment: cells; conditions: Rattus norvegicus; for LC50 (concentration giving 50% net cell loss relative to time zero): read-out: LC50; for GI50 / IC50 / IC (total growth inhibition): C6, MTT; for IC50: read-out: IC50; for IC (total growth inhibition): read-out: TGI
Description: as §1, §2, §3

HT29 = experiment: cells; conditions: Homo sapiens; for LC50 (concentration giving 50% net cell loss relative to time zero): HT-29, read-out: LC50; for GI50 / IC50 / IC (total growth inhibition): HT-29, HT29, MTT; for IC50: read-out: IC50; for IC (total growth inhibition): read-out: TGI
Description: as §1, §2, §3

HeLa = experiment: cells; conditions: Homo sapiens; for GI50 / IC50 / IC (total growth inhibition): MTT; for IC50: read-out: IC50; for IC (total growth inhibition): read-out: TGI; for LC50 (concentration causing 50% net cell loss): read-out: LC50
Description: as §1, §2, §3

Hep3B = experiment: cells; conditions: Homo sapiens; for GI50 / IC50 / IC (total growth inhibition): MTT; for IC50: read-out: IC50; for IC (total growth inhibition): read-out: TGI; for LC50 (concentration causing 50% net cell loss relative to time zero): read-out: LC50
Description: as §1, §2, §3

MCF7 = experiment: cells; conditions: Homo sapiens; for LC50 (concentration causing 50% net cell loss relative to time zero): MCF7, read-out: LC50; for GI50 / IC50 / IC (total growth inhibition): MCF7, MTT; for IC50: read-out: IC50; for IC (total growth inhibition): read-out: TGI
Description: as §1, §2, §3

[1] = LDH cytotoxic activity assay, HeLa; conditions: human, HeLa cells
Description: as §1
Approximately 5 × 10^3 cells in 100 μL were placed into 96-well plates as triplicates and treated with 25, 50, 75, and 100 μg/mL concentrations of test compounds at 37 °C with 5% CO2 for 24 h. LDH activity was obtained by determining absorbance at 492–630 nm using a microplate reader.

[2] = system: A. actinomycetemcomitans ATCC 33384; experiment: Microdilution MIC assay; conditions: Aggregatibacter actinomycetemcomitans, ATCC33384; A. actinomycetemcomitans ATCC 33384, 24 h at 35 °C
Description: (§4) MIC values of the compounds against bacterial strains were determined on the basis of a microwell dilution method. […] […]. Growth of microorganisms was determined visually after incubation for 24 h at 35 °C. The lowest concentration at which there was no visible growth (turbidity) was taken as the MIC.

E. coli ATCC 25922 = experiment: Microdilution MIC assay; conditions: Escherichia coli, ATCC25922; E. coli ATCC 25922, 24 h at 35 °C
Description: as §4

E. coli ESBL ATCC 35218 = experiment: Microdilution MIC assay; conditions: Escherichia coli, ATCC35218; E. coli ESBL ATCC 35218, 24 h at 35 °C
Description: as §4

[3] = system: E. faecalis VRE ATCC 19433; experiment: Microdilution MIC assay; conditions: Enterococcus faecalis; E. faecalis VRE ATCC 19433, 24 h at 35 °C
Description: as §4

[4] = system: P. aeruginosa AGME ATCC 27853; experiment: Microdilution MIC assay; conditions: Pseudomonas aeruginosa, ATCC27853; P. aeruginosa AGME ATCC 27853, 24 h at 35 °C
Description: as §4

S. aureus ATCC 25923 = experiment: Microdilution MIC assay; conditions: Staphylococcus aureus, ATCC25923, 24 h, S. aureus ATCC 25923, 24 h at 35 °C; read-out: MIC
Description: as §4

[5] = system: S. aureus MRSA ATCC 46300; experiment: Microdilution MIC assay; conditions: Staphylococcus aureus; S. aureus MRSA ATCC 46300, 24 h at 35 °C; read-out: MIC
Description: as §4

S. gordonii NCTC 7870 = experiment: Microdilution MIC assay; conditions: Streptococcus gordonii, NCTC7870; S. gordonii NCTC 7870, 24 h at 35 °C
Description: as §4

S. mutans ATCC 35668 = experiment: Microdilution MIC assay; conditions: S. mutans ATCC 35668, 24 h at 35 °C
Description: as §4

[6] = Streptococcus mutans, ATCC35668, 24 h, read-out: MIC

SMILES | LC50 (concentration causing 50% net cell loss) (A549) [µg/mL] | GI50 (A549) [µg/mL] | IC50 (A549) [µg/mL] | IC (total growth inhibition) (A549) [µg/mL] | LC50 (concentration giving 50% net cell loss relative to time zero) (C6 (Rat brain glioma)) [µg/mL] | GI50 (C6 (Rat brain glioma)) [µg/mL] | IC50 (C6 (Rat brain glioma)) [µg/mL] | IC (total growth inhibition) (C6 (Rat brain glioma)) [µg/mL] | LC50 (concentration giving 50% net cell loss relative to time zero) (HT29) [µg/mL] | GI50 (HT29) [µg/mL] | IC50 (HT29) [µg/mL] | IC (total growth inhibition) (HT29) [µg/mL] | GI50 (HeLa) [µg/mL] | IC50 (HeLa) [µg/mL] | IC (total growth inhibition) (HeLa) [µg/mL] | LC50 (concentration causing 50% net cell loss) (HeLa) [µg/mL] | GI50 (Hep3B) [µg/mL] | IC50 (Hep3B) [µg/mL] | IC (total growth inhibition) (Hep3B) [µg/mL] | LC50 (concentration causing 50% net cell loss relative to time zero) (Hep3B) [µg/mL] | also measured
CC(=O)OC[C@H]1O[C@@H](Nc2nc(-c3cccnc3)cc(-c3ccccc3C)n2)[C@H](OC(C)=O)[C@@H](OC(C)=O)[C@@H]1OC(C)=O [Compound 11, 2,3,4,6-tetra-O-acetyl-N-[4-(2-methylphenyl)-6-pyridin-3-ylpyrimidin-2-yl]-β-D-glucopyranosylamine] | > 500 | > 500 | > 500 | > 500 | 578 (≈ 975 µM) | 2.1 (≈ 3.54 µM) | 21.9 (≈ 36.9 µM) | 8.83 | > 500 | 2.75 (≈ 4.64 µM) | > 500 | > 500 | > 500 | > 500 | > 500 | > 500 | 4.25 (≈ 7.17 µM) | > 500 | > 500 | > 500 | LC50 (concentration causing 50% net cell loss relative to time zero) (MCF7): > 500 µg/mL; GI50 (MCF7): 4.46 µg/mL (≈ 7.53 µM); IC50 (MCF7): > 500 µg/mL; IC (total growth inhibition) (MCF7): > 500 µg/mL; cytotoxicity at 24 h, 25 μg/mL [1]: 17.2%; cytotoxicity at 24 h, 50 μg/mL [1]: 29.8%; cytotoxicity at 24 h, 75 μg/mL [1]: 45%; cytotoxicity at 24 h, 100 μg/mL [1]: 49.8%; MIC [2]: > 1000 µg/mL; MIC (E. coli ATCC 25922): > 1000 µg/mL; MIC (E. coli ESBL ATCC 35218): > 1000 µg/mL; MIC [3]: > 1000 µg/mL; MIC [4]: > 1000 µg/mL; MIC (S. aureus ATCC 25923): > 1000 µg/mL; MIC [5]: 1000 µg/mL (≈ 1690 µM); MIC (S. gordonii NCTC 7870): > 1000 µg/mL; MIC (S. mutans ATCC 35668; [6]): 250 µg/mL (≈ 422 µM)
CC(=O)OC[C@H]1O[C@@H](Nc2nc(-c3ccncc3)cc(-c3ccc(C)cc3)n2)[C@H](OC(C)=O)[C@@H](OC(C)=O)[C@@H]1OC(C)=O [Compound 18, 2,3,4,6-tetra-O-acetyl-N-[4-(4-methylphenyl)-6-pyridin-4-ylpyrimidin-2-yl]-β-D-glucopyranosylamine] | > 500 | 15.5 (≈ 26.2 µM) | > 500 | > 500 | 29.8 (≈ 50.2 µM) | 2.23 (≈ 3.76 µM) | 30.1 (≈ 50.9 µM) | 5.21 | > 500 | 7.77 (≈ 13.1 µM) | > 500 | > 500 | 1.03 (≈ 1.74 µM) | 2.29 (≈ 3.86 µM) | 1.29 | 7.4 (≈ 12.5 µM) | 6.15 (≈ 10.4 µM) | > 500 | > 500 | > 500 | LC50 (concentration causing 50% net cell loss relative to time zero) (MCF7): > 500 µg/mL; GI50 (MCF7): 1.79 µg/mL (≈ 3.02 µM); IC50 (MCF7): > 500 µg/mL; IC (total growth inhibition) (MCF7): > 500 µg/mL; cytotoxicity at 24 h, 25 μg/mL [1]: 14.2%; cytotoxicity at 24 h, 50 μg/mL [1]: 39%; cytotoxicity at 24 h, 75 μg/mL [1]: 46.1%; cytotoxicity at 24 h, 100 μg/mL [1]: 54.2%; MIC [2]: > 1000 µg/mL; MIC (E. coli ATCC 25922): > 1000 µg/mL; MIC (E. coli ESBL ATCC 35218): > 1000 µg/mL; MIC [3]: 1000 µg/mL (≈ 1690 µM); MIC [4]: > 1000 µg/mL; MIC (S. aureus ATCC 25923): 500 µg/mL (≈ 844 µM); MIC [5]: 500 µg/mL (≈ 844 µM); MIC (S. gordonii NCTC 7870): > 1000 µg/mL; MIC (S. mutans ATCC 35668): 125 µg/mL (≈ 211 µM); MIC (S. mutans ATCC 35668; [6]): 62.5 to 125 µg/mL (≈ 105 to 211 µM)
